{"source": "paper PMC6402191", "about": "(Clinical and Translational Science, 2017)", "key": {"[1]": {"assay": "Plasma concentrations used to calculate DDI indices and R values", "format": "in vivo, human", "details": "estimated from published Cmax and unbound fraction"}, "[2]": {"details": "cited from earlier work"}, "[3]": {"assay": "Pharmacokinetic input parameters of the PBPK models", "format": "in vivo, human"}, "[4]": {"details": "cited from earlier work; for fu (fraction unbound in plasma): ref 15 (probenecid), 16 (ibuprofen), 17, 18 (diclofenac)"}, "[5]": {"details": "cited from earlier work", "remark": "listed apart in the source"}, "[6]": {"system": "OAT3", "details": "read-out: IC50 OAT3, pemetrexed as substrate, cited from earlier work"}, "[7]": {"biological_target": "MATE2-K (Homo sapiens, UniProt Q86VL8)", "sequence (Q86VL8 1-566 isoform Q86VL8-3)": "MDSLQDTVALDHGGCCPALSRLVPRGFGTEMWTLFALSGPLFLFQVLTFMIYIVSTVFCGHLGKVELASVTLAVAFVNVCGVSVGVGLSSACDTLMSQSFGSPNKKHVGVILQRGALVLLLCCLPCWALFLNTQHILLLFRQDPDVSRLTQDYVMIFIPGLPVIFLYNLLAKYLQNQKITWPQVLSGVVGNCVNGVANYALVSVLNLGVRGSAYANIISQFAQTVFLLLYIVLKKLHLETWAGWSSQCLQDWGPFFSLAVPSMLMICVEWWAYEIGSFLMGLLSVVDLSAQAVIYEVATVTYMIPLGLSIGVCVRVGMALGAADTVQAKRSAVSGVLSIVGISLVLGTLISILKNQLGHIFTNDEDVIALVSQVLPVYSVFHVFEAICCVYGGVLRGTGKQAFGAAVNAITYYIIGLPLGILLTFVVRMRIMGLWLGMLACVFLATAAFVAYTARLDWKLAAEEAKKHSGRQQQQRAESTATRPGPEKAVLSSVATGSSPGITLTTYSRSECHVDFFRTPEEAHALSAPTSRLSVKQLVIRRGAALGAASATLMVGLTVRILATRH", "assay": "Inhibition of the MATE2-K-mediated uptake of baricitinib", "format": "in vitro ADME", "details": "for IC50: IC50 MATE2-K (mean), substrate 0.25 μM baricitinib, 0.5 min; for DDI index ([Iu]/IC50), MATE2-K: baricitinib as substrate"}, "[8]": {"assay": "Clinical baricitinib-probenecid DDI study in healthy subjects", "format": "in vivo, human"}, "[9]": {"assay": "PBPK modeling", "design": "species or system human"}, "[10]": {"details": "cited from earlier work", "remark": "listed apart in the source"}, "[11]": {"details": "published mean (CV) or range, ref 45 (ibuprofen), 17 (diclofenac)"}}, "note": "Where “and” joins values, the source holds several entries; their conditions need not be identical. Equal values may be shown once. Read-outs that look alike come from different tables or passages of the source. Marks after values point to notes of the source that are not given here."}
{"molecule": "O=C(O)Cc1ccccc1Nc1c(Cl)cccc1Cl", "note": "[Diclofenac]", "values": [{"measurement": "Cmax unbound inhibitor [Iu]", "setting": "[1]", "value": 30, "unit": "nM"}, {"measurement": "AUC observed", "setting": "[2]; [11]", "value": "2.7 – 4.4 ^b μg·h/mL"}, {"measurement": "Cmax observed", "setting": "[2]; [11]", "value": "1.2 – 3.6 ^b μg/mL"}, {"measurement": "ka (first-order absorption rate constant)", "setting": "[3]; calculated as 1/gastric emptying time", "value": 6, "unit": "h^‐1"}, {"measurement": "plasma bound", "setting": "[4]", "value": "d 100 mg oral dose, 99.7% bound to plasma.30"}, {"measurement": "fu (fraction unbound in plasma)", "setting": "[4]", "value": 0.003}, {"measurement": "Clearance (i.v.)", "setting": "[5]; i.v., scaled by body weight to Simcyp population", "value": "Clearance = 20 ^a (i.v.) L/h"}, {"measurement": "IC50", "setting": "[6]", "value": "[…]"}, {"measurement": "IC50", "setting": "[6]; listed as diclofenac", "value": "[…]"}]}
{"molecule": "NS(=O)(=O)c1cc(C(=O)O)c(NCc2ccco2)cc1Cl", "note": "[furosemide]", "values": [{"measurement": "decrease of CLr by probenecid", "setting": "[2]", "value": 66, "unit": "%"}]}
{"molecule": "CN/C(=N/CCSCc1nc[nH]c1C)NC#N", "note": "[Cimetidine]", "values": [{"measurement": "Cmax unbound inhibitor [Iu]", "setting": "[1]", "value": 7900, "unit": "nM"}, {"measurement": "IC50", "setting": "[7]", "value": 5.1, "unit": "µM"}, {"measurement": "DDI index ([Iu]/IC50), MATE2-K", "setting": "[7]", "value": "1.57 and 1.6"}, {"measurement": "plasma bound", "setting": "[4]", "value": "f 400 mg oral dose, 20% plasma bound.31"}]}
{"molecule": "CCCN(CCC)S(=O)(=O)c1ccc(C(=O)O)cc1", "note": "[Probenecid]", "values": [{"measurement": "Cmax unbound inhibitor [Iu]", "setting": "[1]", "value": 22100, "unit": "nM"}, {"measurement": "CL/F", "setting": "[3]; human, plasma, po, 2000 mg/day", "value": 12.2, "unit": "mL/min"}, {"measurement": "Inhibition of MATE2-K-mediated baricitinib transport (in words)", "setting": "[7]; probenecid 0–200 μM, cimetidine, pyrimethamine 0–100 μM", "value": "did not inhibit"}, {"measurement": "plasma bound", "setting": "[4]", "value": "a 1 g oral dose, 91% plasma bound.29"}, {"measurement": "Fa (fraction absorbed)", "setting": "[5]; ref 20 (probenecid), 21 (ibuprofen), 17 (diclofenac)", "value": 1}, {"measurement": "tolerability", "setting": "[8]; healthy subjects, all drug-related treatment-emergent AEs mild", "value": "well tolerated"}, {"measurement": "Cmax", "setting": "[8]; human, plasma, oral, 1000 mg", "value": 145, "unit": "µg/mL"}, {"measurement": "Tmax", "setting": "[8]; human, plasma, oral, 1000 mg b.i.d.", "value": 2, "unit": "h"}, {"measurement": "Css,ave observed", "setting": "[8]; probenecid 1,000 mg BID", "value": 115, "unit": "µg/mL"}, {"measurement": "trough plasma concentration (Cmin)", "setting": "[8]; probenecid 1,000 mg b.i.d.", "value": 88, "unit": "µg/mL"}, {"measurement": "Observed/Predicted Css,ave", "setting": "[9]", "value": 1.0}]}
{"molecule": "CCc1nc(N)nc(N)c1-c1ccc(Cl)cc1", "note": "[Pyrimethamine]", "values": [{"measurement": "Cmax unbound inhibitor [Iu]", "setting": "[1]", "value": 100, "unit": "nM"}, {"measurement": "IC50", "setting": "[7]", "value": 0.25, "unit": "µM"}, {"measurement": "DDI index ([Iu]/IC50), MATE2-K", "setting": "[7]", "value": 0.5}, {"measurement": "DDI index ([Iu]/IC50), MATE2-K", "setting": "[7]; listed as pyrimethamine", "value": 0.49}, {"measurement": "plasma bound", "setting": "[4]", "value": "g 25 mg oral dose, 87% plasma bound.32"}]}
{"molecule": "CC(C)Cc1ccc(C(C)C(=O)O)cc1", "note": "(stereo not shown) [Ibuprofen]", "values": [{"measurement": "AUC observed", "setting": "[2]; [11]", "value": "218 (23) ^a μg·h/mL"}, {"measurement": "LogP", "setting": "[10]", "value": 4.13}, {"measurement": "plasma bound", "setting": "[4]", "value": "b 800 mg oral dose, 99% plasma bound.30"}, {"measurement": "fu (fraction unbound in plasma)", "setting": "[4]", "value": 0.018}, {"measurement": "tlag", "setting": "[5]", "value": 0.1, "unit": "h"}, {"measurement": "ka (first-order absorption rate constant)", "setting": "[5]; ref 22 (probenecid), 23 (ibuprofen)", "value": 1.52, "unit": "h^‐1"}, {"measurement": "IC50", "setting": "[6]", "value": "[…]"}]}
{"molecule": "CCOC(=O)C1=C[C@@H](OC(CC)CC)[C@H](NC(C)=O)[C@@H](N)C1", "note": "[oseltamivir]", "values": [{"measurement": "decrease of clearance by probenecid", "setting": "[2]", "value": 32, "unit": "%"}]}
{"molecule": "CN(Cc1cnc2nc(N)nc(N)c2n1)c1ccc(C(=O)N[C@@H](CCC(=O)O)C(=O)O)cc1", "note": "[Methotrexate]", "values": [{"measurement": "Cmax unbound inhibitor [Iu]", "setting": "[1]", "value": 600, "unit": "nM"}, {"measurement": "plasma bound", "setting": "[4]", "value": "e 15 mg s.c. dose, 46% plasma bound.30"}]}
